Series [1] in a line: 14-day IV toxicity study in the rat. In kind it is in vivo. How it is done: (§1) The updated exposure margins considering the highest maximum exposures in rats and dogs are calculated as follows: • Maximum exposure in the rat (male) was in the 14-day IV study and at the 300 mg/kg dose, the AUClast is 1070 μg*hr/mL. • Maximum exposure in dogs occurred at the 300 mg/kg dose in the 9-month oral toxicity study and the AUClast is 1310*μg·hr/mL.

The next series deals with immobilized aged mice. As to conditions: immobilized aged mice (20-months-old), orally dosed, vs control vehicle; cited from earlier work.
The subject of series [2] is healthy older adult humans. Nature of the series: BGE-105 in immobilized human muscles, 10 days bed rest (Example 11). In kind it is in vivo. As to conditions: 200 mg of BGE-105 a day. The source says: Two groups of healthy older adult humans (e.g., n=10 per group) who are moderately active remain in bed continuously for 10 days, except for toileting, and they consume a eucaloric diet providing the recommended dietary allowance for protein (0.8 g/kg of protein per day). […] Measurements before and after bed rest include muscle function and protein synthesis.

Series [3] relates to aged mice. Conditions: aged mice (24-month-old) vs age-matched controls, cited from earlier work.
For series [4], the system named is healthy adult subjects. Nature of the series: Phase 1 Part A (SAD) safety and tolerability. In kind it is in vivo, human. How it is done: (§2) After a baseline period of 24 hours in the clinic, all subjects receive a LD, 1-hour infusion on Day 1. After a 48-hour wash-out period, in which PK and PK/PD data iscollected, subjects receive a 23-hour infusion (1-hour LD followed by a 22-hour maintenance dose). See FIG. 45 for the different dose levels in each SAD cohort. See e.g., Table 33 below. Part A is double-blinded. The cohorts of Part A is conducted sequentially starting with SAD cohort 1.
On Day 1 for Part A, subjects receive LD, 1-hour infusion. On Day 3, after a 48-hour washout period, subjects then receive a 23-hour infusion (1-hour LD followed by a 22-hour MD). No earlier than 24 hours after the end of infusion, subjects is discharged from the clinic on Day 5 (End of Treatment Period [EOTP]). A treatment protocol for the SAD cohorts of Part A is described below: • a. Predose assessments (vital signs and PK assessments) should be done within 30 min of the start of infusion. • b. Vital signs include diastolic and systolic blood pressure and pulse. In addition, temperature and respiratory rate should be collected on predose Day 1 and EOT Day 5. • c. […] AEs was recorded from the start time of the first BGE-105 or placebo study drug infusion until the end of the subject's participation in the study. […]
(§3) The Safety Analysis Set is used for safety analysis. Subjects is analyzed based on the actual treatment received.

The test system of series [5] is healthy volunteers aged≥65 years. Nature of the series: Phase 1b Part B (MD) safety. In kind it is in vivo, human. As to the method:
as §3
The double-blind, placebo-controlled clinical trial evaluated the safety and pharmacodynamics of BGE-105.

Series [6] deals with immortalized muscle precursor cells from human patients. As to conditions: cited from earlier work.
Series [7] is described as follows: Phase 1 study BGE-105-101 Part A (SAD) pharmacokinetics after IV infusion. In kind it is in vivo, human. As to conditions: for Dose-normalized AUCinf / Dose-normalized Cmax: Mean, unit assumed. As to the method: (§4) In Part A, of 24 subjects enrolled (3 SAD cohorts, 8 subjects each), a total of at least 12 subjects are ≥65 years of age (≥4 subjects in each cohort). The remaining subjects are ≥18 years old.
as §2
On Day 1 for Part A, subjects receive LD, 1-hour infusion. On Day 3, after a 48-hour washout period, subjects then receive a 23-hour infusion (1-hour LD followed by a 22-hour MD). No earlier than 24 hours after the end of infusion, subjects is discharged from the clinic on Day 5 (End of Treatment Period [EOTP]). A treatment protocol for the SAD cohorts of Part A is described below: • a. Predose assessments (vital signs and PK assessments) should be done within 30 min of the start of infusion. • b. Vital signs include diastolic and systolic blood pressure and pulse. In addition, temperature and respiratory rate should be collected on predose Day 1 and EOT Day 5. • c. Safety laboratory tests include complete blood count, clinical chemistries, and urinalysis. • d. Assessments should be done within 1 hour after the end of the LD infusions on Day 1 and Day 3. • e. AEs was recorded from the start time of the first BGE-105 or placebo study drug infusion until the end of the subject's participation in the study. At discharge from the unit, any ongoing AEs was documented in source and in EDC be followed until the event is resolved or stabilized. Any new AEs occurring after discharge will clearly note the start date and end date. • f. Study drug was administered via IV infusion as a LD, 1-hour infusion on Day 1. After a 48-hour wash-out, study drug will then be administered as a 23-hour infusion (1-hour LD followed by a 22-hour MD). • g. Continuous cardiac ECG telemetry monitoring was used, continuing through the end of dosing on Day 4. • h. Blood samples for plasma insulin and glucose monitoring should be collected in the morning, before breakfast and after fasting overnight. • i. Assessments can be done any time after 24 hours after the end of infusion and before discharge.
Relevant plasma PK parameters are derived for BGE-105 by standard noncompartmental methods and tabulated along with descriptive statistics and graphs.

Series [8] has as its system healthy adult subjects. Nature of the series: Phase 1 Part A (SAD) insulin resistance (HOMA-IR). In kind it is in vivo, human. Conditions: SAD cohorts 1, 2, 3; Day 3 Predose and Day 4 visits; largest decrease in cohort 3. As to the method:
as §4
Biomarkers including, but not limited to changes in: • Plasma glucose • Plasma insulin • Insulin resistance (HOMA-IR)
as §2
Blood samples (4 mL) for plasma insulin and glucose monitoring are collected in the morning, before breakfast and after fasting overnight at timepoints described previously.
Data is analyzed as change from baseline within each dose cohort and treatment group. Treatment comparisons are made as a linear contrast of all treated compared to all placebo and for each individual dose cohort versus all placebo based on time-matched samples acquired during the 24-hour period on Day −1. P-values are reported uncorrected for multiplicity.

Series [9] in a line: 9-month oral toxicity study in dogs. In kind it is in vivo. Conditions: dog. How it is done: as §1
Series [10] concerns Diet-Induced Obese (DIO) mice. Nature of the series: Pilot study of BGE-105 in aged DIO mice treated with semaglutide (Example 1). In kind it is in vivo. An excerpt: Endpoints and measurements used to assess effects included: • Body Weight, Clinical Evaluation & Body Condition Score; • Group Food Intake, Water Intake; • Fed Glucose; • Body composition by Echo-MRI; • Baseline and endpoint grid hang tests; and • Endpoint tissue harvest.
25-month-old (aged) C57BL/6 female mice were used in this study. Diet for 25-month-old C57BL/6 mice included lean control D12450B (10 kcal % fat), or a diet induced-obesity (DIO) diet D12492 (60 kcal % fat) (Research Diets, Inc.). The study duration was 37 days. Treatment started on Day 0 and ended on Day 35-36.
Semaglutide was purchased from MCE (Cat No. HY-114118/CS-0069903)
Mice from all Groups (1-5) were measured with fed glucose, and body weight and body composition for randomization.
Body weight, group food intake, group water intake, body composition and grid hang tests were measured and monitored during the study.
On the day of necropsy, blood plasma and tissue samples were collected.

The test system of series [11] is aged mice. Conditions: aged mice (18-month-old) first injected with a cardiotoxin; cited from earlier work.

Structures are written as SMILES. “Also recorded” adds a separate entry of the source.

We go through 1 compound from patent US20240366602A1, “COMBINATION THERAPY OF APELIN RECEPTOR AGONIST AND GLP-1 RECEPTOR AGONIST FOR TREATING A DISEASE OR CONDITION ASSOCIATED WITH WEIGHT GAIN” (BioAge Labs, Inc., priority 2023, published 2024).

Consider `COc1cccc(OC)c1-n1c(NS(=O)(=O)[C@@H](C)[C@H](C)c2ncc(C)cn2)nnc1-c1cncc(C)c1` [BGE-105, (2S,3R)—N-(4-(2,6-dimethoxyphenyl)-5-(5-methyl-3-pyridinyl)-4H-1,2,4-triazol-3-yl)-3-(5-methyl-2-pyrimidinyl)-2-butanesulfonamide], for which the NOAEL result in series [1] and in series [9] was “maximum dose tested” throughout. Moreover, the Muscle atrophy entry with immobilized aged mice is “significantly reduced muscle atrophy”. For the same compound, in series [2], the “Muscle atrophy in immobilized human muscles” value was “prevent or attenuate muscle atrophy”. Moreover, the Voluntary motor activity result in the series with aged mice [3] (p=0.00228) is given as “statistically significant increase in voluntary motor activity”. Moreover, the Grip strength result with aged mice [3] (p=0.04) is reported as “statistically significant improvement in grip strength”. For the same compound, the Serious adverse events result in the series with healthy adult subjects [4] (SAD cohorts Part A) is “no serious adverse events”. Besides, the Tolerability result was “well tolerated” in the series on healthy adult subjects [4] (SAD cohorts, all doses including 240 mg/1440 mg) and “well tolerated” in series [5] (Part B study). Further, the Serious adverse effects entry in series [5] (volunteers≥65 years old, 10 days of bed rest) is “no serious adverse effects”. Moreover, the “Cell growth and differentiation” value in series [6] was “dose-dependent relationship between cell growth and differentiation, and concentration of BGE-105”. Further, the “Dose proportionality of Cmax and AUC” value in series [7] (3 SAD cohorts, 95% confidence interval for slope includes 1) is listed as “demonstrated dose proportionality; also recorded: linear across the dose range”. For the same compound, the figures for the Dose-normalized AUCinf in series [7] (SAD1 (60 mg/360 mg) Day 1), in series [7] (SAD2 (120 mg/720 mg) Day 1) and in [7] (SAD3 (240 mg/1440 mg) Day 1) were 0.66 µg·h/mL/mg, 0.49 µg·h/mL/mg and 0.5 µg·h/mL/mg, respectively. Further, the Dose-normalized Cmax in series [7] (SAD1 (60 mg/360 mg) Day 1) turned out to be 0.12 µg/mL/mg; in series [7] (SAD2 (120 mg/720 mg) Day 1), 0.11 µg/mL/mg; in series [7] (SAD3 (240 mg/1440 mg) Day 1), 0.11 µg/mL/mg. In addition, the “Percent change from baseline in HOMA-IR” value with healthy adult subjects [8] is “decrease in the percent change from baseline in HOMA-IR”. In [10] (semaglutide 100 nmol/kg, BGE-105 1.1 mg/mL, combination compared to either agent alone), the “Muscle function, grid hang test (latency before mice fell from the grid)” value is “increased muscle function”. In addition, the “Weight of perigonadal fat at study endpoint” value in series [10] (semaglutide 100 nmol/kg, BGE-105 1.1 mg/mL, combination loss statistically significant) is recorded as “statistically insignificant loss in perigonadal fat”. Besides, in series [10] (semaglutide 100 nmol/kg, BGE-105 1.1 mg/mL, vs DIO control mice), the “Quadriceps weight as a percentage of total body weight at study endpoint” value is given as “increased quadricep weight as a percentage of total body weight, but the increases did not achieve statistical significance”. For the same compound, in [10] (vs DIO control mice), the “neutrophil gelatinase-associated lipocalin (NGAL) level at study endpoint” value was “decreased plasma NGAL level”. Also, the “mRNA transcripts indicative of muscle regeneration” value in the series on aged mice [11] is reported as “significantly higher levels of several mRNA transcripts which are indicative of muscle regeneration”.
